Assay [1] deals with Staphylococcus aureus. The assay is described as follows: Antibacterial activity against Staphylococcus aureus RN4220 after 18 hrs by broth microdilution method. It counts as functional. The conditions noted are these: RN4220, 18 h.
Assay [2] relates to Staphylococcus aureus. The assay is described as follows: Antibacterial activity against quinolone-resistant Staphylococcus aureus CCARM 3505 after 18 hrs by broth microdilution method. It counts as functional. The conditions noted are these: CCARM 3505, 18 h.
Assay [3] deals with Staphylococcus aureus. The assay is described as follows: Antibacterial activity against methicillin-resistant Staphylococcus aureus CCARM 3167 after 18 hrs by broth microdilution method. It counts as functional. Particulars: CCARM 3167, 18 h.
Another assay has as its target T1, Peptide deformylase (Staphylococcus aureus, UniProt P68826).
T1 sequence (P68826 whole entry): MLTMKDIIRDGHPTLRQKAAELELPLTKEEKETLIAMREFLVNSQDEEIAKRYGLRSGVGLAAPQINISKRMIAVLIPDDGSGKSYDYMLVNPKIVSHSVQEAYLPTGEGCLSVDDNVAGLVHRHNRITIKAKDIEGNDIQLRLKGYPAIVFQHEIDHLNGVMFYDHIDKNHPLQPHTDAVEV
As to the kind of experiment: (§1) Inhibition of Staphylococcus aureus peptide deformylase using N-formylmethionine-alanine-serine as substrate by spectrophotometry.

Assay [4] addresses T2, Peptide deformylase (Staphylococcus aureus) (UniProt P68826).
T2 sequence (whole entry): T1 sequence (P68826 whole entry)
The assay is described as §1.

The values that follow come from ChEMBL document CHEMBL2010710, “Flavimycins A and B, dimeric 1,3-dihydroisobenzofurans with peptide deformylase inhibitory activity from Aspergillus flavipes” (J Nat Prod, 2012).

pIC50: −log10 of the molar value. Values after ≈ are worked out from the molar mass of the structure shown.

Regarding `CCCCC[C@H](CC(=O)NO)C(=O)N[C@H](C(=O)N1CCC[C@H]1CO)C(C)C` [ACTINONIN], the MIC against Staphylococcus aureus [1], against Staphylococcus aureus [2] and against Staphylococcus aureus [3] was 4 µg/mL (≈ 10.4 µM) each time. At Peptide deformylase, this molecule gave a pIC50 of 7.70.

`Cc1c(O)c(O)c(O)c2c1CO[C@H]2[C@H]1OC(O)c2c(C)c(O)c(O)c(O)c21` (mixture of isomers) [FLAVIMYCIN A]: the MIC in the assay with Staphylococcus aureus [1], against Staphylococcus aureus [2] and against Staphylococcus aureus [3] was 32 µg/mL in each case. Also, the inhibition result in assay [4] is “Dose-dependent effect”. Besides, the pIC50 on Peptide deformylase is 4.45.

In the case of `COCc1c(O)c(O)c(O)c2c1CO[C@H]2[C@H]1OC(O)c2c(C)c(O)c(O)c(O)c21` (mixture of isomers) [FLAVIMYCIN B], the MIC with Staphylococcus aureus [1], against Staphylococcus aureus [2] and in the assay with Staphylococcus aureus [3] was 64 µg/mL throughout. For the same molecule, the inhibition result in assay [4] is “Dose-dependent effect”. For the same molecule, the pIC50 at Peptide deformylase was 4.00.
